The record followed here is patent US5151432A, “Substituted amino acid compounds” (Adir et Compagnie, priority 1989, dated 1992).

What is called IC50 is the concentration that gives 50% inhibition. Read a low IC50 as higher potency.

Where only a bound is given, the exact number is not on record here.

The target in test [1] is angiotensin I converting enzyme (Homo sapiens, UniProt P12821). Kind of test: Inhibitory effects on angiotensin I converting enzyme in vitro (conversion of hippurylhistidylleucine to hippuric acid, RYAN method). The format is biochemical. The conditions noted are these: substrate HHL. The procedure: The activity of the converting enzyme is determined in vitro according to the method of RYAN J. W. et al. (Biochem. J., 1977, 167, 501-504), which utilizes the reaction of conversion of hippurylhistidylleucine (HHL) to hippuric acid. The latter is assayed by liquid scintillation after extraction with ethyl acetate. The inhibitory effect of a compound is determined by incubation at different doses in the presence of the substrate and the converting enzyme. The results are expressed as the IC50 of these compounds.

For test [2], the system named is amnesic scopolamine-treated animals (scopolamine-induced amnesia). Kind of test: Promnesic effects: one trial-passive avoidance test in rats with scopolamine-induced amnesia. The format is in vivo, Male OFA rats (Iffa-Credo). The conditions noted are these: for % Retention at 300 sec. / Latency of transit: 24 h retention. The text has this: Male OFA rats (Iffa-Credo) weighting 210-240 g are placed in individual cages under standard environmental conditions. The memory test is a test of one trial-passive avoidance in which experimental amnesia is induced by prior injection of scopolamine.
The apparatus consists of a two-compartment enclosure separated by an automatically closing door.
On the day of conditioning, each animal is placed during 60 seconds in the aversive compartment (white, brightly lit).
Then the door is rapidly open and the rat can freely enter the compartment where it feels secure (black and dark). Transit thereto triggers closing of the door, followed by application to the animal of an unescapable electric shock via the floor of the dark compartment (0.6 mA; 3 seconds).
Memory retention is measured 24 hours later under the same conditions. For this purpose, the latency of transit to the black compartment is measured and the maximum observation time is set at 300 seconds.
The memory enhancing effect of the compounds under investigation is measured in animals receiving scopolamine. These compounds are administered I.P. twice daily during the 3 days preceding the memory test, and then 1 hour before the conditioning test (i.e. 30 minutes before the scopolamine).
The promnesic effects of the compounds increase the transit time relative to the amnesic animals.
The compounds of the present invention are compared to oxiracetam, the nootropic agent most recently proposed in the therapy of memory disorders.

Sequence of angiotensin I converting enzyme (P12821 30-1306): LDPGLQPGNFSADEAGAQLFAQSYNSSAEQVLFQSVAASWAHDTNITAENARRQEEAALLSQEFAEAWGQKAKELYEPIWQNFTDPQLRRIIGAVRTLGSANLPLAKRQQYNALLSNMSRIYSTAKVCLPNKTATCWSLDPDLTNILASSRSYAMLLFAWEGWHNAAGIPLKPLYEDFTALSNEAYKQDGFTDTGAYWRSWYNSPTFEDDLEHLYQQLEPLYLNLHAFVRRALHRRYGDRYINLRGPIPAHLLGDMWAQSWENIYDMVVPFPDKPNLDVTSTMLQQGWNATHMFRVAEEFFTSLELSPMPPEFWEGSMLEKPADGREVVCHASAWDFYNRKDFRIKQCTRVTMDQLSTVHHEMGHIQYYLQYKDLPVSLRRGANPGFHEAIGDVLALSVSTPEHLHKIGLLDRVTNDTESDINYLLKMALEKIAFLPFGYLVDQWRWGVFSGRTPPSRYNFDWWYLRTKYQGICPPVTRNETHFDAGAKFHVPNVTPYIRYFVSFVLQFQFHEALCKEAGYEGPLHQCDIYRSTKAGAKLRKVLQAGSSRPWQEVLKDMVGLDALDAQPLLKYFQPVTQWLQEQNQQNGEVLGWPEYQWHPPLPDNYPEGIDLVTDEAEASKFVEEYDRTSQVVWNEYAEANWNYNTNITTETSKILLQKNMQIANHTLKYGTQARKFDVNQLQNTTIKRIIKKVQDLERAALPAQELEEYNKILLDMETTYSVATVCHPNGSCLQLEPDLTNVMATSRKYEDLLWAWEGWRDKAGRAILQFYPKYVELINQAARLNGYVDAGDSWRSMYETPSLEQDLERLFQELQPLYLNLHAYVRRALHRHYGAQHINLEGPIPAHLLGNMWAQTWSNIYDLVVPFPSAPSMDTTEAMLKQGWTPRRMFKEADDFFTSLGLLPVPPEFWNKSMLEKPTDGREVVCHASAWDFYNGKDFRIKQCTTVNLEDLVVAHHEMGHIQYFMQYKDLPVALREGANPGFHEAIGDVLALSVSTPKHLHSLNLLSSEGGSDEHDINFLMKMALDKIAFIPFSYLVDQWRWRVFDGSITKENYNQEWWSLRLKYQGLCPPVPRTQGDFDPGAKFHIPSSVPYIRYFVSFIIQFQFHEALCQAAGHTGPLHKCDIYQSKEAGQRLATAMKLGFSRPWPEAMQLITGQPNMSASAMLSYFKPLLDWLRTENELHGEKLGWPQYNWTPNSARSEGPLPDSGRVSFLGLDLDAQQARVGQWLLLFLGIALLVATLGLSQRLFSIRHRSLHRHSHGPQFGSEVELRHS

In turn, `CCC[C@H](N[C@@H](C)C(=O)N1C2CCC(CC2)[C@H]1C(N)=O)C(=O)O` [Example 2, (3S)-2-{(S)-2-[(S)-1-CARBOXYBUTYLAMINO]-PROPIONYL}-3-CARBAMOYL-2-AZABICYCLO-[2.2.2]OCTANE] came in with an IC50 in test [1] of 0.05 µM.
For the compound `CCC[C@H](N[C@@H](C)C(=O)N1C2CCC(CC2)[C@H]1C(N)=O)C(N)=O` [Example 3, (3S)-2-{(S)-2-[(S)-1-CARBAMOYLBUTYL-AMINO]PROPIONYL}-3-CARBAMOYL-2-AZABICYCLO[2.2.2]OCTANE], the “% Retention at 300 sec.” value is 5% in test [2] (0.003 mg/kg I.P.); 10% in test [2] (0.01 mg/kg I.P.); 35% in test [2] (0.03 mg/kg I.P.); 45% in test [2] (0.1 mg/kg I.P.); 40% in test [2] (0.3 mg/kg I.P.); 20% in test [2] (1 mg/kg I.P.). Moreover, the “% Retention at 300 sec.” value in test [2] (3 mg/kg I.P.) is listed as 10%. Further, the “Latency of transit” value is recorded as 108.2 s in test [2] (0.003 mg/kg I.P.); 119.3 s in test [2] (0.01 mg/kg I.P.); 166.4 s in test [2] (0.03 mg/kg I.P.); 171.6 s in test [2] (0.1 mg/kg I.P.); 182.6 s in test [2] (0.3 mg/kg I.P.); 125.2 s in test [2] (1 mg/kg I.P.). In addition, the “Latency of transit” value in test [2] (3 mg/kg I.P.) came to 121.3 s.
With `CCCCCCCCOC(=O)[C@@H]1C2CCC(CC2)N1C(=O)[C@H](C)N[C@@H](CCC)C(N)=O` [Example 4, (3S)-2-{(S)-2-[(S)-1-CARBAMOYLBUTYLAMINO]PROPIONYL}-2-AZABICYCLO[2.2.2]-OCTANE-3-CARBOXYLIC ACID n-OCTYL ESTER], the “% Retention at 300 sec.” value is 10% in test [2] (0.003 mg/kg I.P.); 30% in test [2] (0.01 mg/kg I.P.); 50% in test [2] (0.03 mg/kg I.P.); 55% in test [2] (0.1 mg/kg I.P.); 40% in test [2] (0.3 mg/kg I.P.); 40% in test [2] (1 mg/kg I.P.). In test [2] (3 mg/kg I.P.), the “% Retention at 300 sec.” value worked out at 5%. In addition, the “Latency of transit” value turned out to be 115.6 s in test [2] (0.003 mg/kg I.P.); 149.3 s in test [2] (0.01 mg/kg I.P.); 205.1 s in test [2] (0.03 mg/kg I.P.); 207.2 s in test [2] (0.1 mg/kg I.P.); 202.1 s in test [2] (0.3 mg/kg I.P.); 171.5 s in test [2] (1 mg/kg I.P.). In addition, the “Latency of transit” value in test [2] (3 mg/kg I.P.) is 106.7 s.
For `NCCCC[C@H](N[C@@H](CCc1ccccc1)C(=O)O)C(=O)N1C2CCC(CC2)[C@H]1C(N)=O` [Example 8, (3S)-2-{(S)-2-[(S)-1-CARBOXY-3-PHENYLPROPYLAMINO]-6-AMINOHEXANOYL}-3-CARBAMOYL-2-AZABICYCLO[2.2.2]OCTANE], the half-maximal inhibitory concentration (IC50) in test [1] is 0.018 µM.
With `NC(=O)CN1CC(O)CC1=O` (stereo not drawn) [OXIRACETAM, oxiracetam, reference compound], the “% Retention at 300 sec.” value in test [2] (1 mg/kg I.P.) came out at 10%; in test [2] (3 mg/kg I.P.) it was 10%; in test [2] (10 mg/kg I.P.), 5%; in test [2] (30 mg/kg I.P.), 30%; in test [2] (100 mg/kg I.P.), 40%; in test [2] (300 mg/kg I.P.), 45%. The “% Retention at 300 sec.” value in test [2] (1000 mg/kg I.P.) amounted to 30%. Further, the “Latency of transit” value in test [2] (1 mg/kg I.P.) is recorded as 97.4 s; in test [2] (3 mg/kg I.P.) it was 126.5 s; in test [2] (10 mg/kg I.P.), 115.3 s; in test [2] (30 mg/kg I.P.) it was 150.1 s; in test [2] (100 mg/kg I.P.) it was 182.5 s; in test [2] (300 mg/kg I.P.), 200.2 s. Besides, the “Latency of transit” value in test [2] (1000 mg/kg I.P.) was 175.8 s. Moreover, in test [2] (Rattus norvegicus, ip, I.P., minimal active dose, read-out: dose with protective effect (scopolamine-induced amnesia)), the minimal effective dose was not below 30 mg/kg.
